Measured values as given in US12527773B2, “Flavi-block: a pan-flavivirus inhibitor” (Baden-Württemberg Stiftung GmbH, priority 2020, dated 2026).
pEC50, pIC50: −log10 of the molar value. “Also recorded” adds a separate entry of the source. Where two headings read alike, the source gives them in different places.

Key:
[1] = Cytotoxicity in Huh7.5 cells (Cell Titer Glo, ATP); type: cell-based; settings: human, Huh7.5 cells; Huh7.5, 24 h
Experimental: (§1) Cell viability was measured via the presence of ATP using the Promega Cell Titer Glo kit according to the manufacturer's instructions. Luminescence was detected using the Cytation3 by Biotek. […] (B) The same set of data as shown in FIG. 4A was plotted in a line graph. […] (D) As for FIG. 4A, Huh7.5 cells (1.0×10^4 cells/well) were seeded and incubated with C10 at the indicated concentrations for the indicated time points before measurement of viability using the Promega Cell Titer Glo kit.
(§2) Cell viability was measured by the presence of ATP using the Promega Cell Titer Glo Kit according to the manufacturer's instructions. Luminescence was detected using a Biotek Cytation3.
(§3) In the analysis of the data, all values were normalized against the DMSO control and presented in terms of percentage viability. The result is shown in the bar chart of FIG. 4A and the line chart of FIG. 4B; n≥6 with SEM.
(§4) For this purpose, Huh7.5 cells were seeded, treated and analyzed as described above. The CC50 values for C10, D1, D2, and D3 were calculated using GraphPad Prism6 software with a non-linear regression curve fitting algorithm, as shown in FIG. 4B. It should be noted that the tested compounds precipitate at concentrations above 160 μM in aqueous solutions. For this reason, higher concentrations cannot be tested.

[2] = system: Huh7.5 cells; assay: Cytotoxicity in Huh7.5 cells (Cell Titer Glo, ATP); type: cell-based; settings: Huh7.5, 24 h
Experimental: as §1, §2, §3, §4

[3] = system: DENV4; assay: Plaque assay of released virus, DENV4-infected Vero cells; type: cell-based; settings: Dengue virus
Experimental: Vero cells were infected with DENV1-4 at an MOI of 1 for 2 h (post infection, p.i., (A)), after which virus was removed, and fresh maintenance medium containing 2% FCS together with the indicated concentration of C10 added. For co-treat condition (c.t., (B)), Vero cells were infected with DENV1-4 at an MOI of 1 in the presence of C10 for 2 h, followed by removal of the virus/C10 inoculums, and addition of fresh 2% fetal calf serum maintenance medium. […] Results represent the mean ±SD for duplicate wells from a single assay, representative of 2 independent experiments (cf. Tables 2A and 2B, infra, for pooled data).
(§5) Vero and BHK-21 cells were maintained in DMEM media supplemented with 10% heat-inactivated FBS at 37° C. in a humidified incubator supplemented with 5% CO2; A549 cells were maintained in F-12K medium supplemented with 10% heat-inactivated Fetal Bovine Serum (FBS), 2 mM L-glutamine, 50 U/I penicillin, 0.05 mg/l streptomycin. […] Viral titer was subsequently determined by plaque assay (see below).
Vero cells were seeded into 24-well plates at a density of 2×10^5 cells/well and grown overnight in culture medium at 37° C. with 5% CO2 prior to infection with RSV, KUNV, ZIKV as indicated. […] The stain was removed by rinsing the cells with tap water, and the viral plaques were counted visually. […]

[4] = system: ChikV; assay: IC50 in established virological assays (Table 1), ChikV; type: cell-based; settings: Chikungunya virus
[5] = in vitro; settings: for % Remain. Mean: mouse plasma, 1 μM, 37° C.
Experimental: Plasma stability is defined as the percentage of parent compound remaining in plasma over the time.
Incubations were carried out in 5 aliquots of 70 μL each (one for each time point), in duplicates. Test compounds (1 μM, final DMSO concentration 1%) were incubated at 37° C. with shaking at 100 rpm. Five time points over 120 minutes have been analyzed. The reactions were stopped by adding 420 μL of acetonitrile-water mixture (90:10) with subsequent plasma proteins sedimentation by centrifuging at 5500 rpm for 5 minutes. Supernatants were analyzed by the HPLC system coupled with tandem mass spectrometer. The percentage of the test compounds remaining after incubation in plasma and their half-lives (T1/2) were calculated.

[6] = molecular target: HCV core protein (Hepatitis C virus genotype 1a, UniProt P27958); assay: Interaction with and crosslinking of HCV core protein (Western blot); settings: purified core protein
[7] = molecular target: T1, DENV capsid protein (Dengue virus type 2, UniProt P29990); assay: Crosslinking of recombinant DENV capsid protein (Western blot); type: biochemical
T1 construct: recombinant DENV capsid protein; made in house; host or cells: E. coli
Description: DSS was included as a positive control.

[8] = system: RSV; assay: Plaque assay, RSV infection (A549 cells lysed at 22 h); type: cell-based; settings: human respiratory syncytial virus
Experimental: as §5, with “streptomycin. DENV-1-4 strains, cell culture conditions and Gen-Bank accession numbers, as well as details of RSV strains and culture are known in the art.” for “streptomycin.”
Vero cells were seeded into 24-well plates at a density of 2×10^5 cells/well and grown overnight in culture medium at 37° C. with 5% CO2 prior to infection with RSV, KUNV, ZIKV as indicated. BHK-21 cells were used for DENV1-4. The virus inoculum was removed and replaced with semisolid overlays of 0.8% aquacide II (Calbiochem) in DMEM+2% FBS, and the mixture was incubated at 37° C. with 5% CO2. After 3-5 days, the cells were fixed with neutral buffered formalin (Sigma) for 3 h at room temperature, rinsed with tap water, and stained with 1% crystal violet for 10 min. The stain was removed by rinsing the cells with tap water, and the viral plaques were counted visually. Dose-response curves were plotted from the plaque number versus the log of the concentration of the test compounds. […]

[9] = system: DENV, ZIKV and KUNV; assay: Inhibition of flavivirus infection, summary bounds over DENV, ZIKV and KUNV; type: cell-based
Experimental: Vero cells were seeded into 24-well plates at a density of 2×10^5 cells/well and grown overnight in culture medium at 37° C. with 5% CO2 prior to infection with RSV, KUNV, ZIKV as indicated. BHK-21 cells were used for DENV1-4. The virus inoculum was removed and replaced with semisolid overlays of 0.8% aquacide II (Calbiochem) in DMEM+2% FBS, and the mixture was incubated at 37° C. with 5% CO2. After 3-5 days, the cells were fixed with neutral buffered formalin (Sigma) for 3 h at room temperature, rinsed with tap water, and stained with 1% crystal violet for 10 min. The stain was removed by rinsing the cells with tap water, and the viral plaques were counted visually. Dose-response curves were plotted from the plaque number versus the log of the concentration of the test compounds.
Viral RNA was extracted using Isolate II RNA extraction kit (Bioline), and the absolute number of RNA copies determined by Taqman One Step RT-qPCR (Applied Biosystems) by extrapolation from a standard curve generated from in vitro—transcribed virus RNA.
It was decided to test the ability of C10 to inhibit the flaviviruses DENV1-4, KUNV and ZIKV, in addition to the paramyxovirus RSV, as a control.

Sequence of HCV core protein (P27958 1-117): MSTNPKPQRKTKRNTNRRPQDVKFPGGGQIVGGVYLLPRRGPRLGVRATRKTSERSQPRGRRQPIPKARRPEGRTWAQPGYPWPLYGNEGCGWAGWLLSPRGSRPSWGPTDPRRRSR
T1 sequence (P29990 1-100): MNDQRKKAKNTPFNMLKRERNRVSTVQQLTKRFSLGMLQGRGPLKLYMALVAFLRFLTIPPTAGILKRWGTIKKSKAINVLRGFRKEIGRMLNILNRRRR

In the case of `CCN1/C(=C\C=C\c2sc3cc(NC(C)=O)ccc3[n+]2CC)Sc2cc(NC(C)=O)ccc21.[I-]` [C10, 6-acetamido-2-((1E,3E)-3-(6-acetamido-3-ethylbenzo[d]thiazol-2(3H)-ylidene)prop-1-en-1-yl)-3-ethylbenzo[d]thiazol-3-ium iodide], the CC50 at 24 h [1] was 106000 nM, the “concentration up to which not toxic” value [2] was “up to 40 μM” and the pEC50 ([3]; read-out: EC50 from plaque assays, DENV4, c.t.) was 7.30. The pEC50 ([3]; read-out: EC50 from plaque assays, DENV4, p.i.) was 6.10, the pIC50 [4] was 5.25 and the “% Remain. Mean” value ([5]; 0 min) was 100%. For the same compound, the “% Remain. Mean” value ([5]; 20 min) was 93%, the “% Remain. Mean” value ([5]; 40 min) was 90% and the “% Remain. Mean” value ([5]; 60 min) was 82%. For the same compound, the “% Remain. Mean” value ([5]; 120 min) was 57%, the half-life at 1 μM ([5]; mouse, plasma) was 3.68 h and the “stability in mouse plasma” value ([5]; mouse, plasma) was “good stability”. The “cross-linking / oligomerization of HCV core protein” value [6] was “leads to cross-linking of the core protein; also recorded: triggers the oligomerization of HCV core protein”, the “effect on oligomerization state of DENV capsid protein” value [7] was “enhance the presence of dimers, tetramers and higher oligomeric states” and the pEC50 ([8]; c.t., read-out: EC50 from plaque assays) was 6.05. For the same compound, the pEC50 ([8]; co-added with virus (text, Tables 2A and 2B), read-out: EC50) was about 6.10, the pEC50 ([9]; c.t., DENV, ZIKV and KUNV infection, read-out: EC50) was over 6.30 and the pEC50 ([9]; c.t., read-out: EC50, infectious virus (plaque-forming units)) was over 7.00. For the same compound, the pEC50 ([9]; c.t., read-out: EC50, virus genomes by RT-qPCR) was over 6.30, the pEC50 ([9]; p.i., DENV, ZIKV and KUNV infection, read-out: EC50) was over 5.70 and the pEC50 ([9]; p.i., read-out: EC50, virus genomes by RT-qPCR) was over 5.77. For the same compound, the pEC50 ([9]; read-out: EC50, infectious virus (plaque-forming units), p.i.) was over 5.82 and the pEC50 ([9]; read-out: EC50s for co-addition, all serotypes of DENV, ZIKV and WNV, plaque assays or qPCR) was 7.00 to 8.00.
